For this data set the following is noted: in vivo.

On to `CC[C@H](C)[C@H](N)C(=O)N[C@@H](Cc1c[nH]c2ccccc12)C(=O)O` [Ile-Trp, L-Ile-L-Trp], for which the “side effects from the use of the dipeptide” value is reported as “not found any significant side effects”.
